Data as given in the supplement of paper PMC10307832.

compound: O=C(c1cc(Cc2n[nH]c(=O)c3ccccc23)ccc1F)N1CCN(C(=O)C2CC2)CC1 [Olaparib] + Nc1nc2[nH]cc(CCc3ccc(C(=O)N[C@@H](CCC(=O)O)C(=O)O)cc3)c2c(=O)[nH]1 [Pemetrexed] (partner 0.2 µM); experiment: relative viability (nuclei count vs DMSO), 5 days (fraction); higher = more cells survive; conditions: first compound 0.08 µM
How it was run: (§1)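 After 5 days of treatment, lung cancer cells in 1536-well plates were fixed and stained in a single step (final 0.05% Triton X-100, 1% formaldehyde, 1 ug/ml Hoechst) and their nuclei counted on 4× images. Treatment had been applied by pin tool the day after seeding as one drug alone or as a fixed anchor-drug dose with five library-drug doses (not always all listed) in √10 steps. Relative viability is the nuclei count of treated wells divided by that of vehicle wells, and values are medians of duplicate plates.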

Cell Line | relative viability
NCI-H2405 | 1.02
NCI-H3122 | 0.202
PC-3 [JPC-3] | 1.1
PC-14 | 0.131
RERF-LC-KJ | 0.527
SK-LU-1 | 1.12
SK-MES-1 | 0.982
SW 900 | 0.502
SW 1573 | 0.903
UMC-11 | 0.806

same assay, conditions: first compound 0.253 µM

Cell Line | relative viability
NCI-H2405 | 0.931
NCI-H3122 | 0.194
PC-14 | 0.14
RERF-LC-KJ | 0.477
SK-LU-1 | 0.865
SK-MES-1 | 0.91
SW 900 | 0.461
SW 1573 | 0.899
UMC-11 | 0.683

same assay, conditions: first compound 2.53 µM

Cell Line | relative viability
NCI-H2405 | 1.02
NCI-H3122 | 0.191
PC-3 [JPC-3] | 1.26
PC-14 | 0.135
RERF-LC-KJ | 0.481
SK-LU-1 | 0.866
SK-MES-1 | 0.853
SW 900 | 0.456
SW 1573 | 0.779
UMC-11 | 0.691

same assay, conditions: first compound 8 µM

Cell Line | relative viability
NCI-H2405 | 1.01
NCI-H3122 | 0.18
PC-3 [JPC-3] | 1.05
PC-14 | 0.139
RERF-LC-KJ | 0.449
SK-LU-1 | 0.635
SK-MES-1 | 0.768
SW 900 | 0.457
SW 1573 | 0.597
UMC-11 | 0.537

compound: CC(C)C[C@H](NC(=O)[C@H](CCc1ccccc1)NC(=O)CN1CCOCC1)C(=O)N[C@@H](Cc1ccccc1)C(=O)N[C@@H](CC(C)C)C(=O)[C@@]1(C)CO1 [Carfilzomib] + Cc1nc(Nc2ncc(C(=O)Nc3c(C)cccc3Cl)s2)cc(N2CCN(CCO)CC2)n1 [Dasatinib] (partner 0.075 µM); experiment: as above; conditions: first compound 0.001 µM
How it was run: as §1

Cell Line | relative viability
NCI-H3122 | 0.868
PC-3 [JPC-3] | 0.914
PC-14 | 0.311
RERF-LC-KJ | 0.792
SK-LU-1 | 0.167
SK-MES-1 | 0.323
SW 900 | 0.561
SW 1573 | 0.653
UMC-11 | 0.52

same assay, conditions: first compound 0.003162 µM

Cell Line | relative viability
NCI-H2405 | 0.218
NCI-H3122 | 0.925
PC-3 [JPC-3] | 0.972
PC-14 | 0.305
RERF-LC-KJ | 0.82
SK-LU-1 | 0.189
SK-MES-1 | 0.454
SW 900 | 0.467
SW 1573 | 0.764
UMC-11 | 0.412

same assay, conditions: first compound 0.01 µM

Cell Line | relative viability
NCI-H2405 | 0.203
NCI-H3122 | 0.909
PC-3 [JPC-3] | 0.996
PC-14 | 0.241
RERF-LC-KJ | 0.867
SK-LU-1 | 0.236
SK-MES-1 | 0.409
SW 900 | 0.137
SW 1573 | 0.372
UMC-11 | 0.415

same assay, conditions: first compound 0.03162 µM

Cell Line | relative viability
NCI-H2405 | 0.247
NCI-H3122 | 0.69
PC-3 [JPC-3] | 0.597
PC-14 | 0.0289
RERF-LC-KJ | 0.388
SK-LU-1 | 0.0906
SK-MES-1 | 0.197
SW 900 | 0.141
SW 1573 | 0.0426
UMC-11 | 0.393

same assay, conditions: first compound 0.1 µM

Cell Line | relative viability
NCI-H2405 | 0.188
NCI-H3122 | 0.162
PC-3 [JPC-3] | 0.428
PC-14 | 0.0424
RERF-LC-KJ | 0.184
SK-LU-1 | 0.117
SK-MES-1 | 0.107
SW 900 | 0.137
SW 1573 | 0.0643
UMC-11 | 0.184

compound: C[C@@H](Oc1cc(-c2cnn(C3CCNCC3)c2)cnc1N)c1c(Cl)ccc(F)c1Cl [Crizotinib] + O=C(c1cc(Cc2n[nH]c(=O)c3ccccc23)ccc1F)N1CCN(C(=O)C2CC2)CC1 [Olaparib] (partner 8 µM); experiment: as above; conditions: first compound 0.01 µM
How it was run: as §1

Cell Line | relative viability
NCI-H2405 | 0.794
NCI-H3122 | 0.597
PC-3 [JPC-3] | 1.09
PC-14 | 0.274
RERF-LC-KJ | 0.843
SK-LU-1 | 0.504
SK-MES-1 | 0.683
SW 900 | 0.792
SW 1573 | 0.44
UMC-11 | 0.35

same assay, conditions: first compound 0.03162 µM

Cell Line | relative viability
NCI-H2405 | 0.837
NCI-H3122 | 0.57
PC-3 [JPC-3] | 1.22
PC-14 | 0.28
RERF-LC-KJ | 0.887
SK-LU-1 | 0.438
SK-MES-1 | 0.733
SW 900 | 0.814
SW 1573 | 0.459
UMC-11 | 0.306

same assay, conditions: first compound 0.1 µM

Cell Line | relative viability
NCI-H2405 | 0.906
NCI-H3122 | 0.61
PC-3 [JPC-3] | 1.13
PC-14 | 0.307
RERF-LC-KJ | 0.928
SK-LU-1 | 0.451
SK-MES-1 | 0.761
SW 900 | 0.831
SW 1573 | 0.542
UMC-11 | 0.375

same assay, conditions: first compound 0.3162 µM

Cell Line | relative viability
NCI-H2405 | 0.751
NCI-H3122 | 0.637
PC-14 | 0.401
RERF-LC-KJ | 0.919
SK-LU-1 | 0.477
SK-MES-1 | 0.762
SW 900 | 1.06
SW 1573 | 0.483
UMC-11 | 0.494

same assay, conditions: first compound 1 µM

Cell Line | relative viability
NCI-H2405 | 0.901
NCI-H3122 | 0.631
PC-3 [JPC-3] | 1.12
PC-14 | 0.289
RERF-LC-KJ | 0.802
SK-LU-1 | 0.405
SK-MES-1 | 0.637
SW 900 | 0.863
SW 1573 | 0.383
UMC-11 | 0.317

compound: C[C@@H](Oc1cc(-c2cnn(C3CCNCC3)c2)cnc1N)c1c(Cl)ccc(F)c1Cl [Crizotinib] + Nc1ncn([C@H]2C[C@H](O)[C@@H](CO)O2)c(=O)n1 [Decitabine] (partner 2 µM); experiment: as above; conditions: first compound 0.01 µM
How it was run: as §1

Cell Line | relative viability
NCI-H2405 | 0.717
NCI-H3122 | 0.316
PC-3 [JPC-3] | 0.794
PC-14 | 0.182
RERF-LC-KJ | 0.737
SK-LU-1 | 0.648
SK-MES-1 | 0.318
SW 900 | 0.418
SW 1573 | 0.431
UMC-11 | 0.694

same assay, conditions: first compound 0.03162 µM

Cell Line | relative viability
NCI-H2405 | 0.698
NCI-H3122 | 0.408
PC-3 [JPC-3] | 0.809
PC-14 | 0.248
RERF-LC-KJ | 0.635
SK-LU-1 | 0.715
SK-MES-1 | 0.378
SW 900 | 0.436
SW 1573 | 0.529
UMC-11 | 0.593

same assay, conditions: first compound 0.1 µM

Cell Line | relative viability
NCI-H2405 | 0.717
NCI-H3122 | 0.456
PC-3 [JPC-3] | 0.839
PC-14 | 0.225
RERF-LC-KJ | 0.569
SK-LU-1 | 0.634
SK-MES-1 | 0.367
SW 900 | 0.403
SW 1573 | 0.483
UMC-11 | 0.521

same assay, conditions: first compound 0.3162 µM

Cell Line | relative viability
NCI-H2405 | 0.727
NCI-H3122 | 0.409
PC-14 | 0.244
RERF-LC-KJ | 0.585
SK-LU-1 | 0.599
SK-MES-1 | 0.388
SW 900 | 0.449
SW 1573 | 0.404

same assay, conditions: first compound 1 µM

Cell Line | relative viability
NCI-H2405 | 0.734
NCI-H3122 | 0.453
PC-3 [JPC-3] | 0.865
PC-14 | 0.248
RERF-LC-KJ | 0.7
SK-LU-1 | 0.63
SK-MES-1 | 0.335
SW 900 | 0.459
SW 1573 | 0.456
UMC-11 | 0.643
